Measurements reported in PubChem BioAssay (NCI).
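Interpolation was linear, between the two tested concentrations surrounding the appropriate level; five concentrations were tested over 48 hours in 96-well plates. Here, GI50 denotes the concentration required for 50% inhibition of growth. At the TGI there is no net growth.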

Legend:
Test in all cases: NCI tumour cell line growth inhibition, 48 h
TK-10 renal = system: TK-10 renal
A549 NSCLC = system: A549 NSCLC
SN12C renal = system: SN12C renal
SF-268 CNS = system: SF-268 CNS
MDA-MB-435 = system: MDA-MB-435
SK-MEL-28 melanoma = system: SK-MEL-28 melanoma
SK-MEL-2 melanoma = system: SK-MEL-2 melanoma
A498 renal = system: A498 renal
SR leukemia = system: SR leukemia
SNB-75 CNS = system: SNB-75 CNS

Row | SMILES | GI50 (TK-10 renal) [µM] | TGI (TK-10 renal) [µM] | GI50 (A549 NSCLC) [µM] | TGI (A549 NSCLC) [µM] | GI50 (SN12C renal) [µM] | TGI (SN12C renal) [µM] | GI50 (SF-268 CNS) [µM] | TGI (SF-268 CNS) [µM] | GI50 (MDA-MB-435) [µM] | TGI (MDA-MB-435) [µM] | GI50 (SK-MEL-28 melanoma) [µM] | TGI (SK-MEL-28 melanoma) [µM] | GI50 (SK-MEL-2 melanoma) [µM] | TGI (SK-MEL-2 melanoma) [µM] | GI50 (A498 renal) [µM] | TGI (A498 renal) [µM] | GI50 (SR leukemia) [µM] | TGI (SR leukemia) [µM] | TGI (SNB-75 CNS) [µM] | GI50 (SNB-75 CNS) [µM]
1 | O=C(c1ccco1)c1c(C(F)(F)F)n([O-])c2cc(F)c(F)cc2[n+]1=O | 0.204 | 1.02 | 1.32 | 3.12 | 0.307 | 1.01 | 0.29 | 1.09 | 0.553 | 3.45 | 0.416 | 2.58 | 2.93 | 12.8 | 4.88 | 17.3 | 0.0237 | 0.39 |  | 
2 | COc1ccc(OC)c(Cc2cnc3nc(N)nc(N)c3c2C)c1 |  | > 84.7 |  | 36.9 |  | 33.6 |  | > 71.2 |  | > 49 |  | > 51 |  | 27.9 |  |  |  | 21.7 | 21.3 | 
3 | CCOC(=O)C(CCCNC(=O)OC(C)(C)C)N(Cc1ccc(OC)cc1OC)C(=O)CC(=O)CP(=O)(OCC)OCC (configuration not stated) |  | > 100 |  | > 100 |  | > 100 |  | > 100 |  |  |  | > 100 |  | > 100 |  | > 100 |  | > 100 | > 100 | 
4 | CN1C(=NCCO)NS(=O)(=O)c2ccccc21 |  | > 100 |  | > 100 |  | > 100 |  | > 100 |  | > 100 |  | > 100 |  | > 100 |  | > 100 |  | > 100 |  | 
5 | O=S(=O)(NCCCNc1nccc(-c2c(-c3ccc(F)cc3)nc3sccn23)n1)c1ccc(F)cc1 | 19.2 | > 100 | 4.87 | > 100 | 9.04 | > 100 | 20 | > 100 | 3.69 | > 100 | 20.3 | > 100 | 23.2 | > 100 | 2.25 | 45.6 |  |  | 16.9 | 2.16
6 | C[P+]1(c2ccccc2)CCCCC1 |  | > 100 |  | > 100 |  | > 100 |  | > 100 |  |  |  | > 100 |  | > 100 |  | > 100 |  |  | > 100 | 
7 | CCc1ccccc1NC(=O)CC1NC(=O)CS1 (configuration not stated) |  | > 100 |  | > 100 |  | > 100 |  | > 100 |  |  |  | > 100 |  | > 100 |  | > 100 |  |  | > 100 | 
8 | CN1CCCC1c1cccnc1.O=C(O)c1ccccc1O.O=C([O-])c1ccccc1[OH2+].O=C([O-])c1ccccc1[OH2+].[Mn+2] (configuration not stated) | > 100 | > 100 | > 100 | > 100 | > 100 | > 100 | 31.6 | > 100 | > 100 | > 100 | > 100 | > 100 | 54.3 | > 100 | > 100 | > 100 |  |  | > 100 | > 100
9 | Cc1ccc(NC(=O)/C(C#N)=C/c2ccccc2)c(C)c1 |  | > 100 |  | > 100 |  | > 100 |  | > 100 |  |  |  | > 100 |  | > 100 |  | > 100 |  | > 100 | > 100 | 
10 | N#CNC1=NC(N)C(c2nc3ccccc3[nH]2)=C(CCCC(=O)Nc2cccc([N+](=O)[O-])c2)N1 (configuration not stated) |  | > 100 |  | > 100 |  | > 100 |  | > 100 |  |  |  | > 100 |  | > 100 |  |  |  |  | > 100 | 
11 | O=[N+]([O-])/C=C/c1ccc(Cl)cc1Cl |  |  |  | 48.5 |  |  |  | 44.5 |  |  |  | 30.3 |  | 40.2 |  |  |  | 47 | 34.8 | 
12 | CC(=O)Nc1ccc(S(=O)(=O)NN(C)S(=O)(=O)c2ccc(C)cc2)cc1 |  | > 100 |  | > 100 |  | > 100 |  | > 100 |  |  |  | > 100 |  | > 100 |  | > 100 |  | > 100 |  | 
13 | N#CC1C(N)=NNC12Nc1ccccc1S2 (configuration not stated) | 41.5 | > 100 | 9.61 | 31.5 | 24.4 | 60.2 | 62.9 | > 100 | 13.9 | 51.3 |  |  | 6.28 | 43.9 |  |  | 8.81 | 29.9 |  | 
14 | Cc1ccc(Cl)cc1-n1c(C)nc2c(cnn2-c2ccnc3c(C(F)(F)F)cccc23)c1=O | > 100 | > 100 | > 100 | > 100 | > 100 | > 100 | > 100 | > 100 | > 100 | > 100 | > 100 | > 100 | > 100 | > 100 |  |  |  |  | > 100 | > 100
15 | O=C1C(Sc2ccc3ccccc3c2)=C(Sc2ccc3ccccc3c2)C(=O)c2ccccc21 |  |  |  | 21.7 |  | 24.7 |  | 28.7 |  | 31.5 |  | 28.5 |  | 19.3 |  | 33.4 |  |  | 28.7 | 
16 | C=CC(=O)N[C@@H](/C=C/C(=O)OCC)Cc1ccc(-c2cc(Cl)cc(Cl)c2)cc1 | 21.9 | 97.7 | 17.7 | > 100 | 8.04 | 26.7 | 16 | > 100 | 8.58 | 50 | 18.1 | 79.8 | 16.3 | 38.3 |  |  | 5.63 | 44.8 | 70 | 10.8
17 | Cn1nc(-c2ccccc2)c(C(=O)/C=C/c2ccc(Cl)cc2)c(N2CCOCC2)c1=O |  | 25.8 |  | 23.1 |  | 29.2 |  | 11.8 |  |  |  | 7.64 |  |  |  | 15.8 |  |  |  | 
18 | CN(C)CCCn1c2c(c3cc4c(cc3c1=O)OCO4)C(=O)c1ccccc1-2 | 3.42 | 17.9 | 0.105 | 2.43 | 0.203 | 3.16 | 13.9 | > 44.4 | 1.49 | 5.81 | 4.68 | > 100 | 18.4 | > 59.5 |  |  |  | 0.0486 | 37.4 | 5.89
19 | CC1CCC2C(CN(CC3=C(C(F)(F)F)OC4OC5(C)CCC6C(C)CCC3C46OO5)CC3=C(C(F)(F)F)OC4OC5(C)CCC6C(C)CCC3C46OO5)=C(C(F)(F)F)OC3OC4(C)CCC1C32OO4 (configuration not stated) | 15.4 | 30 | 12.1 | 66.3 | 18.7 | 48.9 | 18.7 | 48.4 | 4.54 | 17.3 | 30.1 | > 100 | 36.6 | > 100 |  |  |  |  | > 100 | 81.6
